Experimental data from the supplement of paper PMC11208160.

Assay: recombinant UMI read abundance after kanamycin selection (control-corrected) (log10(CPM+1)); higher = more efficient recombination; extreme values may be limits of the assay; sequences stand for … in AGTGCAGAGAAAATCGGCCAGTTTTCTCTGCCTGCAGTCCGCATGCCGTGGGACCCCTTGGGTTCTAACCTGTTGCCTAGATTTATGCAGCGGACTGCCTTTCTCCCAAAGTGATAAACCGG…AGGTTGGTTTCACT; site = the 11-nt donor
Method in brief: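 In a pooled Escherichia coli screen for the IS621 bridge recombinase, donor and donor-binding-loop pairs were each placed with a 12-nt UMI on a plasmid bearing a promoterless kanamycin gene. This library was co-electroporated with a target plasmid encoding a fixed target and T7-inducible recombinase, and cells were plated either on IPTG (0.07 mM) plus kanamycin or without selection, in two replicates each. Recombinant UMIs were PCR-amplified across the donor–target junction and sequenced, and counts were converted to CPM, averaged over replicates, scaled by control-derived factors and reported as log10(CPM+1).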
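Further: IS621 bridge recombinase in Escherichia coli cells against a fixed T5 target plasmid.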

Sequence | recombinant UMI read abundance (log10)
ATTGCGGCATGGACCGGTTTTCCCGGTAATCCGTATTTGCT (site GTTGCGGCTAG) | 0.0081
ATTGCGGCATGGACCGGTTTTCCCGGTAATCCGTATTTGCT (site TTTGCGGCTAG) | 0.371
ATTGCGGCATGGACCGGTTTTCCCGGTAATCCGTATTTGGG (site ATTGCGGCTCC) | 0.0219
ATTGGTACATGGACCGGTTTTCCCGGTAATCCGTATTTGCG (site ATTGGTACTCG) | 1.35
ATTGTGACATGGACCGGTTTTCCCGGTAATCCGTATTTGGT (site ATTGAGACTAC) | 0.524
ATTGTGACATGGACCGGTTTTCCCGGTAATCCGTATTTGGT (site ATTGCGACTAC) | 0.0121
ATTGTGACATGGACCGGTTTTCCCGGTAATCCGTATTTGGT (site ATTGGGACTAC) | 0.0143
ATTGTGACATGGACCGGTTTTCCCGGTAATCCGTATTTGGT (site ATTGTGACTAC) | 0.925
ATTGTTCCATGGACCGGTTTTCCCGGTAATCCGTATTTGGT (site ATTGTTCCTAC) | 0
ATTGTTCCATGGACCGGTTTTCCCGGTAATCCGTATTTGGT (site CTTGTTCCTAC) | 0
ATTGTTCCATGGACCGGTTTTCCCGGTAATCCGTATTTGGT (site GTTGTTCCTAC) | 0.00837
ATTGTTCCATGGACCGGTTTTCCCGGTAATCCGTATTTGGT (site TTTGTTCCTAC) | 0.331
ATTTACACATGGACCGGTTTTCCCGGTAATCCGTATTTGTT (site ATTTACACTAA) | 0.967
ATTTATGCATGGACCGGTTTTCCCGGTAATCCGTATTTGGA (site AATTATGCTTC) | 0.379
ATTTATGCATGGACCGGTTTTCCCGGTAATCCGTATTTGGA (site ACTTATGCTTC) | 1.06
ATTTATGCATGGACCGGTTTTCCCGGTAATCCGTATTTGGA (site AGTTATGCTTC) | 0.744
ATTTATGCATGGACCGGTTTTCCCGGTAATCCGTATTTGGA (site ATTTATGCTTC) | 0.0921
CAAAACACATGGACCGGTTTTCCCGGTAATCCGTATTTGCC (site CAAAACACTGG) | 0
CAAACATCATGGACCGGTTTTCCCGGTAATCCGTATTTGTA (site CAAACATCTTA) | 2.53
CAAATCACATGGACCGGTTTTCCCGGTAATCCGTATTTGGG (site CAAATCACTCC) | 0.288
CAAATCACATGGACCGGTTTTCCCGGTAATCCGTATTTGGG (site CAACTCACTCC) | 0.02
CAAATCACATGGACCGGTTTTCCCGGTAATCCGTATTTGGG (site CAAGTCACTCC) | 0.00775
CAAATCACATGGACCGGTTTTCCCGGTAATCCGTATTTGGG (site CAATTCACTCC) | 0.0243
CAACATTCATGGACCGGTTTTCCCGGTAATCCGTATTTGCA (site CAACATTCTTG) | 2.5
CAACCCGCATGGACCGGTTTTCCCGGTAATCCGTATTTGTT (site CAACCCGCTAA) | 1.49
CAACTCACATGGACCGGTTTTCCCGGTAATCCGTATTTGGG (site CAAATCACTCC) | 0.0187

Sequence | recombinant UMI read abundance (log10)
CAACTCACATGGACCGGTTTTCCCGGTAATCCGTATTTGGG (site CAACTCACTCC) | 0.0233
CAACTCACATGGACCGGTTTTCCCGGTAATCCGTATTTGGG (site CAAGTCACTCC) | 0.00719
CAACTCACATGGACCGGTTTTCCCGGTAATCCGTATTTGGG (site CAATTCACTCC) | 0.013
CAACTGACATGGACCGGTTTTCCCGGTAATCCGTATTTGCT (site CAACTGACTAG) | 2.48
CAAGAGACATGGACCGGTTTTCCCGGTAATCCGTATTTGCG (site CAAGAGACTCG) | 3.11
CAAGAGCCATGGACCGGTTTTCCCGGTAATCCGTATTTGGG (site CAAGAGCCTCC) | 0.00368
CAAGCAGCATGGACCGGTTTTCCCGGTAATCCGTATTTGAT (site CAAGCAGCTAA) | 0.982
CAAGCAGCATGGACCGGTTTTCCCGGTAATCCGTATTTGAT (site CAAGCAGCTAC) | 0.271
CAAGCAGCATGGACCGGTTTTCCCGGTAATCCGTATTTGAT (site CAAGCAGCTAG) | 0.784
CAAGCAGCATGGACCGGTTTTCCCGGTAATCCGTATTTGAT (site CAAGCAGCTAT) | 2.44
CAAGCAGCATGGACCGGTTTTCCCGGTAATCCGTATTTGCG (site CAAGCAGCTAG) | 1.9
CAAGCAGCATGGACCGGTTTTCCCGGTAATCCGTATTTGCG (site CAAGCAGCTCG) | 1.81
CAAGCAGCATGGACCGGTTTTCCCGGTAATCCGTATTTGCG (site CAAGCAGCTGG) | 0
CAAGCAGCATGGACCGGTTTTCCCGGTAATCCGTATTTGCG (site CAAGCAGCTTG) | 1.68
CAAGCAGCATGGACCGGTTTTCCCGGTAATCCGTATTTGCT (site AAAGCAGCTAG) | 0
CAAGCAGCATGGACCGGTTTTCCCGGTAATCCGTATTTGCT (site CAAACAGCTAG) | 0.972
CAAGCAGCATGGACCGGTTTTCCCGGTAATCCGTATTTGCT (site CAACCAGCTAG) | 0
CAAGCAGCATGGACCGGTTTTCCCGGTAATCCGTATTTGCT (site CAAGAAGCTAG) | 0.892
CAAGCAGCATGGACCGGTTTTCCCGGTAATCCGTATTTGCT (site CAAGCAACTAG) | 1.47
CAAGCAGCATGGACCGGTTTTCCCGGTAATCCGTATTTGCT (site CAAGCACCTAG) | 0
CAAGCAGCATGGACCGGTTTTCCCGGTAATCCGTATTTGCT (site CAAGCAGCTAA) | 0.285
CAAGCAGCATGGACCGGTTTTCCCGGTAATCCGTATTTGCT (site CAAGCAGCTAC) | 0.0274
CAAGCAGCATGGACCGGTTTTCCCGGTAATCCGTATTTGCT (site CAAGCAGCTAG) | 1.84
CAAGCAGCATGGACCGGTTTTCCCGGTAATCCGTATTTGCT (site CAAGCAGCTAT) | 2.19
CAAGCAGCATGGACCGGTTTTCCCGGTAATCCGTATTTGCT (site CAAGCAGCTCG) | 0.839
CAAGCAGCATGGACCGGTTTTCCCGGTAATCCGTATTTGCT (site CAAGCAGCTGG) | 1.4
